What was measured:
Format in all cases: cell-based
Conditions in all cases: 24 h incubation, visual reading
[1] = tested on: Enterococcus faecium MDR Van A ATCC 51559; assay: MIC assay, E. faecium MDR Van A ATCC 51559
In short: (§1)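 Twofold broth microdilution in Mueller Hinton broth; compounds tested from 8 μg/ml to 0.003 μg/ml. Mid-log cultures were inoculated at 5×10e5 CFU/mL and incubated 24 h at 37° C. MIC was the lowest concentration with no visible growth.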

[2] = tested on: Streptococcus pneumoniae MDR ATCC 700677; assay: MIC assay, S. pneumoniae MDR ATCC 700677
In short: as §1

[3] = tested on: Staphylococcus aureus MRSA ATCC 43300; assay: MIC assay, S. aureus MRSA ATCC 43300
In short: as §1

SMILES | Minimum Inhibitory Concentration (MIC) E. faecium ATCC51559 [1] | Minimum Inhibitory Concentration (MIC) S. pneumoniae ATCC 700677 [2] | Minimum Inhibitory Concentration (MIC) Staph. aureus ATCC43300 [3]
CCCCCC1CCC(C(=O)N[C@@H](CCCCN)C(=O)N[C@@H](CCCCN)C(=O)N[C@@H](CCCCNC(=O)[C@H]2NC(=O)[C@H]3NC(=O)[C@H](NC(=O)[C@@H]4NC(=O)[C@H](CC(N)=O)NC(=O)[C@H](NC(=O)[C@@H](CC(C)C)NC)[C@H](O)c5ccc(c(Cl)c5)Oc5cc4cc(c5O[C@@H]4O[C@H](CO)[C@@H](O)[C@H](O)[C@H]4O[C@H]4C[C@](C)(N)[C@H](O)[C@H](C)O4)Oc4ccc(cc4Cl)[C@H]3O)c3ccc(O)c(c3)-c3c(O)cc(O)cc32)C(=O)O)CC1 (stereo partly drawn) [MCC_005503] | xx (xx = 1-4) | xxxx (xxxx = 0.01-<0.1) | xxxx (xxxx = 0.01-<0.1)
CNC(=O)C(CCCCNC(=O)C1NC(=O)C2NC(=O)C(NC(=O)C3NC(=O)C(CC(N)=O)NC(=O)C(NC(=O)C(CC(C)C)NC)C(O)c4ccc(c(Cl)c4)Oc4cc3cc(c4OC3OC(CO)C(O)C(O)C3OC3CC(C)(N)C(O)C(C)O3)Oc3ccc(cc3Cl)C2O)c2ccc(O)c(c2)-c2c(O)cc(O)cc21)NC(=O)C(CCCCN)NC(=O)C(CCCCN)NC(=O)CCCCCCCCCc1ccccc1 (stereo not drawn) [MCC_000510] | xx (xx = 1-4) | xxxxxx | xxxx (xxxx = 0.01-<0.1)
CNc1ccc(C(=O)N[C@@H](CCCCN)C(=O)N[C@@H](CCCCN)C(=O)N[C@@H](CCCCNC(=O)[C@H]2NC(=O)[C@H]3NC(=O)[C@H](NC(=O)[C@@H]4NC(=O)[C@H](CC(N)=O)NC(=O)[C@H](NC(=O)[C@@H](CC(C)C)NC)[C@H](O)c5ccc(c(Cl)c5)Oc5cc4cc(c5O[C@@H]4O[C@H](CO)[C@@H](O)[C@H](O)[C@H]4O[C@H]4C[C@](C)(N)[C@H](O)[C@H](C)O4)Oc4ccc(cc4Cl)[C@H]3O)c3ccc(O)c(c3)-c3c(O)cc(O)cc32)C(N)=O)cc1 [MCC_004822] | x (x = >4) | xx (xx = 1-4) | xxx (xxx = 0.1-<1)
CNC(=O)C(CCCCNC(=O)C1NC(=O)C2NC(=O)C(NC(=O)C3NC(=O)C(CC(N)=O)NC(=O)C(NC(=O)C(CC(C)C)NC)C(O)c4ccc(c(Cl)c4)Oc4cc3cc(c4OC3OC(CO)C(O)C(O)C3OC3CC(C)(N)C(O)C(C)O3)Oc3ccc(cc3Cl)C2O)c2ccc(O)c(c2)-c2c(O)cc(O)cc21)NC(=O)C(CCCCN)NC(=O)C(CCCCN)NC(=O)CCCCCc1ccccc1 (stereo not drawn) [MCC_000507] | x (x = >4) | xxx (xxx = 0.1-<1) | xxx (xxx = 0.1-<1)
CCCCCCCC(=O)N[C@@H](CCCCN)C(=O)N[C@@H](CCCCN)C(=O)N[C@@H](CCCCNC(=O)[C@H]1NC(=O)[C@H]2NC(=O)[C@H](NC(=O)[C@@H]3NC(=O)[C@H](CC(N)=O)NC(=O)[C@H](NC(=O)[C@@H](CC(C)C)NC)[C@H](O)c4ccc(c(Cl)c4)Oc4cc3cc(c4O[C@@H]3O[C@H](CO)[C@@H](O)[C@H](O)[C@H]3O[C@H]3C[C@](C)(N)[C@H](O)[C@H](C)O3)Oc3ccc(cc3Cl)[C@H]2O)c2ccc(O)c(c2)-c2c(O)cc(O)cc21)C(=O)O [MCC_005225] | x (x = >4) | xx (xx = 1-4) | xx (xx = 1-4)
CCCCCCCCC(=O)N[C@@H](CCCNC(=N)N)C(=O)N[C@@H](CCCCNC(=O)[C@H]1NC(=O)[C@H]2NC(=O)[C@H](NC(=O)[C@@H]3NC(=O)[C@H](CC(N)=O)NC(=O)[C@H](NC(=O)[C@@H](CC(C)C)NC)[C@H](O)c4ccc(c(Cl)c4)Oc4cc3cc(c4O[C@@H]3O[C@H](CO)[C@@H](O)[C@H](O)[C@H]3O[C@H]3C[C@](C)(N)[C@H](O)[C@H](C)O3)Oc3ccc(cc3Cl)[C@H]2O)c2ccc(O)c(c2)-c2c(O)cc(O)cc21)C(=O)O [MCC_007385] | x (x = >4) | xxx (xxx = 0.1-<1) | xxx (xxx = 0.1-<1)
CCCCCCCC(=O)N[C@@H](CCCCN)C(=O)NCCNC(=O)[C@H]1NC(=O)[C@H]2NC(=O)[C@H](NC(=O)[C@@H]3NC(=O)[C@H](CC(N)=O)NC(=O)[C@H](NC(=O)[C@@H](CC(C)C)NC)[C@H](O)c4ccc(c(Cl)c4)Oc4cc3cc(c4O[C@@H]3O[C@H](CO)[C@@H](O)[C@H](O)[C@H]3O[C@H]3C[C@](C)(N)[C@H](O)[C@H](C)O3)Oc3ccc(cc3Cl)[C@H]2O)c2ccc(O)c(c2)-c2c(O)cc(O)cc21 [MCC_005183] | x (x = >4) | xxx (xxx = 0.1-<1) | xxx (xxx = 0.1-<1)
CCCCCCCCCCCCC(=O)NC(CCCCN)C(=O)NC(CCCCN)C(=O)NC(CCCCNC(=O)C1NC(=O)C2NC(=O)C(NC(=O)C3NC(=O)C(CC(N)=O)NC(=O)C(NC(=O)C(CC(C)C)NC)C(O)c4ccc(c(Cl)c4)Oc4cc3cc(c4OC3OC(CO)C(O)C(O)C3OC3CC(C)(N)C(O)C(C)O3)Oc3ccc(cc3Cl)C2O)c2ccc(O)c(c2)-c2c(O)cc(O)cc21)C(=O)NC (stereo not drawn) [MCC_000494] | xx (xx = 1-4) | xxxxx (xxxxx = <0.01) | xxxxx (xxxxx = <0.01)
CCCCCCCC(=O)N[C@@H](CCCCN)C(=O)N[C@@H](CCCCN)C(=O)NCCNC(=O)[C@H]1NC(=O)[C@H]2NC(=O)[C@H](NC(=O)[C@@H]3NC(=O)[C@H](CC(N)=O)NC(=O)[C@H](NC(=O)[C@@H](CC(C)C)NC)[C@H](O)c4ccc(c(Cl)c4)Oc4cc3cc(c4O[C@@H]3O[C@H](CO)[C@@H](O)[C@H](O)[C@H]3O[C@H]3C[C@](C)(N)[C@H](O)[C@H](C)O3)Oc3ccc(cc3Cl)[C@H]2O)c2ccc(O)c(c2)-c2c(O)cc(O)cc21 [MCC_005164] | x (x = >4) | xxx (xxx = 0.1-<1) | xxx (xxx = 0.1-<1)
CCCCCCCCCCC(=O)N[C@@H](CCCCN)C(=O)N[C@@H](CCCCN)C(=O)N[C@@H](CCCCN)C(=O)NCCNC(=O)[C@H]1NC(=O)[C@H]2NC(=O)[C@H](NC(=O)[C@@H]3NC(=O)[C@H](CC(N)=O)NC(=O)[C@H](NC(=O)[C@@H](CC(C)C)NC)[C@H](O)c4ccc(c(Cl)c4)Oc4cc3cc(c4O[C@@H]3O[C@H](CO)[C@@H](O)[C@H](O)[C@H]3O[C@H]3C[C@](C)(N)[C@H](O)[C@H](C)O3)Oc3ccc(cc3Cl)[C@H]2O)c2ccc(O)c(c2)-c2c(O)cc(O)cc21 [MCC_005182] | xx (xx = 1-4) | xxxx (xxxx = 0.01-<0.1) | xxxxx (xxxxx = <0.01)
CNC(=O)C(CCCCNC(=O)C1NC(=O)C2NC(=O)C(NC(=O)C3NC(=O)C(CC(N)=O)NC(=O)C(NC(=O)C(CC(C)C)NC)C(O)c4ccc(c(Cl)c4)Oc4cc3cc(c4OC3OC(CO)C(O)C(O)C3OC3CC(C)(N)C(O)C(C)O3)Oc3ccc(cc3Cl)C2O)c2ccc(O)c(c2)-c2c(O)cc(O)cc21)NC(=O)C(CCCCN)NC(=O)C(CCCCN)NC(=O)C(CCCCN)NC(=O)C(CCCCNC(=O)c1ccc(Oc2ccccc2)cc1)NC(=O)c1ccc(Oc2ccccc2)cc1 (stereo not drawn) [MCC_000316] | xxxx (xxxx = 0.01-<0.1) | xxxxx (xxxxx = <0.01) | xxxxx (xxxxx = <0.01)
CN[C@H](CC(C)C)C(=O)N[C@H]1C(=O)N[C@@H](CC(N)=O)C(=O)N[C@H]2C(=O)N[C@H]3C(=O)N[C@H](C(=O)N[C@H](C(=O)NCCCC[C@H](NC(=O)[C@H](CCCCN)NC(=O)[C@H](CCCCN)NC(=O)CC4CCCCC4)C(=O)O)c4cc(O)cc(O)c4-c4cc3ccc4O)[C@H](O)c3ccc(c(Cl)c3)Oc3cc2cc(c3O[C@@H]2O[C@H](CO)[C@@H](O)[C@H](O)[C@H]2O[C@H]2C[C@](C)(N)[C@H](O)[C@H](C)O2)Oc2ccc(cc2Cl)[C@H]1O [MCC_005502] | x (x = >4) | xx (xx = 1-4) | xx (xx = 1-4)
CCCCCCCOc1ccc(C(=O)NC(CCCCN)C(=O)NC(CCCCN)C(=O)NC(CCCCNC(=O)C2NC(=O)C3NC(=O)C(NC(=O)C4NC(=O)C(CC(N)=O)NC(=O)C(NC(=O)C(CC(C)C)NC)C(O)c5ccc(c(Cl)c5)Oc5cc4cc(c5OC4OC(CO)C(O)C(O)C4OC4CC(C)(N)C(O)C(C)O4)Oc4ccc(cc4Cl)C3O)c3ccc(O)c(c3)-c3c(O)cc(O)cc32)C(=O)NC)cc1 (stereo not drawn) [MCC_000503] | xx (xx = 1-4) | xxxxx (xxxxx = <0.01) | xxxxx (xxxxx = <0.01)
CCCCCCCCCCCCCC(=O)N[C@@H](CCCCN)C(=O)N[C@@H](CCCCN)C(=O)N[C@@H](Cc1cn(CCCNC(=O)[C@H]2NC(=O)[C@H]3NC(=O)[C@H](NC(=O)[C@@H]4NC(=O)[C@H](CC(N)=O)NC(=O)[C@H](NC(=O)[C@@H](CC(C)C)NC)[C@H](O)c5ccc(c(Cl)c5)Oc5cc4cc(c5O[C@@H]4O[C@H](CO)[C@@H](O)[C@H](O)[C@H]4O[C@H]4C[C@](C)(N)[C@H](O)[C@H](C)O4)Oc4ccc(cc4Cl)[C@H]3O)c3ccc(O)c(c3)-c3c(O)cc(O)cc32)nn1)C(N)=O [MCC_000979] | xxx (xxx = 0.1-<1) | xxxxx (xxxxx = <0.01) | xxxxx (xxxxx = <0.01)

— US10947271B2, “Antibacterial agents” (THE UNIVERSITY OF QUEENSLAND, priority 2014, dated 2021)
